Test results reported in patent US7928126B2, “Cyanopyridine derivative and use thereof as medicine” (Mitsubishi Tanabe Pharma Corporation, priority 2005, dated 2011).
Where a name gives a salt, the structure may show the parent alone.

Columns and labels:
[1] = tested on: human breast cancer cell line MDA-MB-453; assay: Cancer cell growth inhibition (WST-8), MDA-MB-453; assay type: cell-based; settings: MDA-MB-453, 72 h, MDAMB-453, 3 days, read-out: Cell proliferation suppressive activity value IC50
Experimental: (§1) Using RPMI1640 medium (manufactured by SIGMA) containing 10% fetal bovine serum, human prostate cancer cell line PC-3, human pancreatic cancer cell line PK-8, and human breast cancer cell line MDA-MB-453 were cultured at 37° C. under 5% CO2. Using DMEM/F-12 medium (manufactured by SIGMA) containing 10% fetal bovine serum, human colon cancer cell line HCT-116, human colon cancer cell line SW620, human ovarian cancer cell line SKOV-3, human prostate cancer cell line DU-145 and human pancreatic cancer cell line PANC-1 were cultured at 37° C. under 5% CO2. These cells were inoculated to a 96 well plate and cultured for one day. Thereto was added a compound diluted with a medium to a final concentration of 0.00064-20 μM (final DMSO concentration, 0.4%). After further cultivation for 3 days, WST-8 (0.16 mg/mL) was added to the culture medium and the culture medium was cultured for 2 hr. The absorbance at 650 nm was subtracted from the absorbance at 450 nm. The growth inhibitory activity was expressed by the decrease rate of the absorbance of compound addition group relative to the absorbance of compound non-addition group, and IC50 value was determined from the dose-reaction curve plotting the decrease rate of the absorbance, which was obtained by changing the concentration of the compound, and the concentration of the compound.

[2] = tested on: human prostate cancer cell line PC-3; assay: Cancer cell growth inhibition (WST-8), PC-3; assay type: cell-based; settings: 72 h, PC3, 3 days, read-out: Cell proliferation suppressive activity value IC50
Experimental: as §1

[3] = target: T1, Porcine brain tubulin protein (Sus scrofa, UniProt P02550+P02554); assay: Tubulin polymerization assay (turbidity at 405 nm); assay type: biochemical; settings: 10 μM compound, maximum polymerization rate, 37° C.; read-out: inhibitory rate (%)
T1 construct: 3.3 mg/ml Porcine brain tubulin protein: Cytoskeleton; purchased Cytoskeleton; host or cells: porcine brain (tissue-derived)
Experimental: A tubulin polymerization reaction mixture (50 μL) (80 mM Pipes pH=6.9, 0.5 mM MgCl2, 1 mM EGTA, 1 mM GTP, 3.3 mg/ml Porcine brain tubulin protein: Cytoskeleton, 10 μM compound) was prepared in a 96 well flat bottom plate under ice-cooling. This was placed in a plate reader (IWAKI microplate reader, EZS-ABS) controlled to a temperature of 37° C., whereby a temperature dependent tubulin polymerization reaction was initiated. Since the turbidity of the reaction mixture increases as the tubulin polymerization proceeds, the absorbance at 405 nm was measured every other minute for 30 min to monitor the polymerization reaction. Of the 30 min measures, the three largest differences per min of turbidity (generally those immediately after start of the reaction) were taken, and the average of the three values was calculated and taken as the maximum polymerization rate. Inhibitory percent (%)=(C−T)/C×100 wherein T is the maximum polymerization rate of the reaction mixture containing the compound, and C is the maximum polymerization rate of the reaction mixture without the compound.

aurora 1 kinase = target: T2, aurora 1 kinase (Homo sapiens, UniProt Q96GD4); assay: Aurora 1 kinase assay (32P-ATP, peptide substrate LRRWSLG); assay type: biochemical; settings: room temperature 60 min
T2 construct: purchased UPSTATE

[4] = tested on: human colon cancer cell line HCT-116; assay: Cancer cell growth inhibition (WST-8), HCT-116; assay type: cell-based; settings: HCT-116, 72 h, HCT116, 3 days, read-out: Cell proliferation suppressive activity value IC50
Experimental: as §1

[5] = tested on: human ovarian cancer cell line SKOV-3; assay: Cancer cell growth inhibition (WST-8), SKOV-3; assay type: cell-based; settings: SK-OV-3, 72 h, SKOV3, 3 days, read-out: Cell proliferation suppressive activity value IC50
Experimental: as §1

[6] = tested on: human prostate cancer cell line DU-145; assay: Cancer cell growth inhibition (WST-8), DU-145; assay type: cell-based; settings: DU-145, 72 h, DU145, 3 days, read-out: Cell proliferation suppressive activity value IC50
Experimental: as §1

[7] = tested on: human colon cancer cell line SW620; assay: Cancer cell growth inhibition (WST-8), SW620; assay type: cell-based; settings: SW-620, 72 h, SW620, 3 days, read-out: Cell proliferation suppressive activity value IC50
Experimental: as §1

aurora 2 kinase = target: T3, aurora 2 kinase (Homo sapiens, UniProt O14965); assay: Aurora 2 kinase assay (32P-ATP, peptide substrate LRRASLG); assay type: biochemical; settings: room temperature 60 min
T3 construct: The amplified gene encoding aurora 2 kinase was introduced into Escherichia coli expression vector pET32a; made in house; host or cells: Escherichia coli BL21R (Novagen), vector pET32a
T3 sequence (O14965 1-403): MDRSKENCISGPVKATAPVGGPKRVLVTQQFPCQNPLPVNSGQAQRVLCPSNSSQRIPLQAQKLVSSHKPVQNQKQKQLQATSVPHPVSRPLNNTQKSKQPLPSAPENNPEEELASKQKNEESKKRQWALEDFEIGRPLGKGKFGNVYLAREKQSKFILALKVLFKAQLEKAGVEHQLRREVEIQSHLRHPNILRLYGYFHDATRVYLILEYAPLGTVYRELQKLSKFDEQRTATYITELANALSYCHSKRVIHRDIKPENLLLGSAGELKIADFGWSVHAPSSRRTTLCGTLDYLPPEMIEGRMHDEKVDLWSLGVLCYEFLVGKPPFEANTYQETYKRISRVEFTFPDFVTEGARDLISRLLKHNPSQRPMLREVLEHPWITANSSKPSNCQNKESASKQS

[8] = tested on: human pancreatic cancer cell line PANC-1; assay: Cancer cell growth inhibition (WST-8), PANC-1; assay type: cell-based; settings: 72 h, PANC-1, 3 days, read-out: Cell proliferation suppressive activity value IC50
Experimental: as §1

[9] = tested on: human pancreatic cancer cell line PK-8; assay: Cancer cell growth inhibition (WST-8), PK-8; assay type: cell-based; settings: 72 h, PK8, 3 days, read-out: Cell proliferation suppressive activity value IC50
Experimental: as §1

human cancer cell lines = assay: Cancer cell growth inhibitory effect, whole cell line panel; assay type: cell-based; settings: over the panel of cell lines
Experimental: as §1

T1 sequence (P02550 whole entry): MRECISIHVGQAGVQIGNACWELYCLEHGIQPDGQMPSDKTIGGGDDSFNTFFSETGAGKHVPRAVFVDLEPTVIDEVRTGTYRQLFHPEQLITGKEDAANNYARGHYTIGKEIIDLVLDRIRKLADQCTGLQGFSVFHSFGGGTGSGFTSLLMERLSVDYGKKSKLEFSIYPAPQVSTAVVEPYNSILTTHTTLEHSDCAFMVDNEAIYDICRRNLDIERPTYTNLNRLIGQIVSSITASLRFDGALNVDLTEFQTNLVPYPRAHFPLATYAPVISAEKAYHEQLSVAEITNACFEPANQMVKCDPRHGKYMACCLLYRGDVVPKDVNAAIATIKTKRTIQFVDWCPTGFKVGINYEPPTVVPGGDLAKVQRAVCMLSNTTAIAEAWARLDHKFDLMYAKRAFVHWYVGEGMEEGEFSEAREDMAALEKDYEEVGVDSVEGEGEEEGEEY
T1 sequence (P02554 whole entry): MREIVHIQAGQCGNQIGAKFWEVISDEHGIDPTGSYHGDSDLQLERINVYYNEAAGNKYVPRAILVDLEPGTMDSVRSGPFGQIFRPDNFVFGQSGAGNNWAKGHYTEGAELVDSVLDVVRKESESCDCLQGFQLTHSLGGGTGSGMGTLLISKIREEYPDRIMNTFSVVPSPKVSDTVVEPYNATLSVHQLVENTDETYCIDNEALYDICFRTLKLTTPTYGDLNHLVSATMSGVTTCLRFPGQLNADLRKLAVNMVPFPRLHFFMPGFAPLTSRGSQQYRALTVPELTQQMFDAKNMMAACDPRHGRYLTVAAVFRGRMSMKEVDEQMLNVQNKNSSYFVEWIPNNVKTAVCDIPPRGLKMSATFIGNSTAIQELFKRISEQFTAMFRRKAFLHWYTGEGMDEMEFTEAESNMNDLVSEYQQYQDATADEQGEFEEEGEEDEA
T2 sequence (Q96GD4 whole entry): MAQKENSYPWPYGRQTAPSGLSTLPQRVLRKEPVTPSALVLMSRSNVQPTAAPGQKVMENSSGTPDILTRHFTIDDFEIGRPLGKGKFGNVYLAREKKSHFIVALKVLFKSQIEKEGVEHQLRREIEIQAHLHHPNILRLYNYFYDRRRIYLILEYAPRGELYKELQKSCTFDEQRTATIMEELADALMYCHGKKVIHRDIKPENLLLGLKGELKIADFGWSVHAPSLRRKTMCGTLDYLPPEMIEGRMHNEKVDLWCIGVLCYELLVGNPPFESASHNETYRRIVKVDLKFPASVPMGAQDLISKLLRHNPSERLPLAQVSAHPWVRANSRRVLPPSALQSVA

SMILES	IC50 [1]	IC50 [2]	inhibition at 10 µM [3]	Ki (aurora 1 kinase)	IC50 [4]	IC50 [5]	IC50 [6]	IC50 [7]	Ki (aurora 2 kinase)	IC50 [8]	IC50 [9]	cancer cell growth inhibitory action (in words) (human cancer cell lines)
Cc1cc(Nc2cc(C)c(C#N)c(NCCOc3ccccc3)n2)n[nH]1 [Example 2, 2-(2-phenoxyethylamino)-6-(5-methyl-1H-pyrazol-3-ylamino)-4-methylnicotinonitrile]	7 nM	17 nM	69%	≤ 100 nM	11 nM	10 nM	7 nM	8 nM	3 nM	1290 nM	18 nM	–
Cc1ccc(OCCNc2nc(Nc3cc(C)[nH]n3)cc(C)c2C#N)cn1 [Example 21, 2-(2-(6-methylpyridin-3-yloxy)ethylamino)-6-(5-methyl-1H-pyrazol-3-ylamino)-4-methylnicotinonitrile]	12 nM	4 nM	63%	≤ 100 nM	7 nM	3 nM	13 nM	5 nM	2 nM	14 nM	8 nM	good cancer cell growth inhibitory action over a broad range
Cc1cc(Nc2cc(C)c(C#N)c(NCCOc3cccnc3C)n2)n[nH]1 [Example 22, 2-(2-(2-methylpyridin-3-yloxy)ethylamino)-6-(5-methyl-1H-pyrazol-3-ylamino)-4-methylnicotinonitrile dihydrochloride]	< 6.4 nM	15 nM	79%	–	4 nM	4 nM	8 nM	< 6.4 nM	4 nM	< 6.4 nM	7 nM	good cancer cell growth inhibitory action over a broad range
Cc1ccc(OCCNc2nc(Nc3cc(C)[nH]n3)cc(C)c2C#N)c(C)n1 [Example 23, 2-(2-(2,6-dimethylpyridin-3-yloxy)ethylamino)-6-(5-methyl-1H-pyrazol-3-ylamino)-4-methylnicotinonitrile dihydrochloride]	40 nM	21 nM	77%	–	37 nM	8 nM	50 nM	40 nM	10 nM	3 nM	13 nM	good cancer cell growth inhibitory action over a broad range

The next lines start with results.

IC50 [1]	IC50 [2]	inhibition at 10 µM [3]	Ki (aurora 1 kinase)	IC50 [4]	IC50 [5]	IC50 [6]	IC50 [7]	Ki (aurora 2 kinase)	IC50 [8]	IC50 [9]	SMILES	cancer cell growth inhibitory action (in words) (human cancer cell lines)
< 6.4 nM	< 6.4 nM	86%	–	17 nM	< 6.4 nM	647 nM	< 6.4 nM	1 nM	1180 nM	83 nM	Cc1cc(Nc2cc(C)c(C#N)c(NCCOc3cccc(F)c3)n2)n[nH]1 [Example 9, 2-(2-(3-fluorophenoxy)ethylamino)-6-(5-methyl-1H-pyrazol-3-ylamino)-4-methylnicotinonitrile hydrochloride]	–
3 nM	7 nM	44%	≤ 100 nM	2 nM	1 nM	7 nM	< 6.4 nM	2 nM	9 nM	4 nM	Cc1cc(Nc2cc(C)c(C#N)c(NCCOc3cccnc3)n2)n[nH]1 [Example 12, 2-(2-(pyridin-3-yloxy)ethylamino)-6-(5-methyl-1H-pyrazol-3-ylamino)-4-methylnicotinonitrile dihydrochloride]	good cancer cell growth inhibitory action over a broad range
4 nM	< 6.4 nM	69%	≤ 100 nM	3 nM	< 6.4 nM	19 nM	< 6.4 nM	4 nM	6180 nM	< 6.4 nM	Cc1cc(Nc2ccc(C#N)c(NCCOc3cccnc3C)n2)n[nH]1 [Example 28, 2-(2-(2-methylpyridin-3-yloxy)ethylamino)-6-(5-methyl-1H-pyrazol-3-ylamino)nicotinonitrile dihydrochloride]	–
